Read-outs that look alike come from different tables or passages of the source.
Settings: 6 days at 80° C.
Procedure: Nitrogen of 99% purity (vol/vol) purity was used as an inert gas. The samples were stored at 80° C. for 6 days, and then the assay of impurities was determined by High Performance Liquid Chromatography.
The oxygen content in the vials was determined by gas chromatography with a mass spectrometric detector (GC/MS).
The degradation products were determined by […] Agilent Technologies (Waldbronn, Germany) model HP 1100. Chromatograms were recorded by a UV detector at 250 nm. The column Chromolit Performance RP-18e 100×4.6 mm (Merck, Darmstadt, Germany) and the gradient of mobile phase A: 20 mM ammonium acetate pH 4.0, 5% (v/v) tetrahydrofuran and 25% (v/v) acetonitrile and the gradient of mobile phase B: 20 mM ammonium acetate pH 4.0, 5% (v/v) tetrahydrofuran and 70 (v/v) acetonitrile were used. The composition of the mobile phase was changed so that initially and to minute 2 there was 25% of mobile phase B (75% of mobile phase A), from minute 2 to minute 4.7 the composition of the mobile phase changed linearly to 100% mobile phase B and it remained such to the end of the analysis at minute 5.5. Flow rate of the mobile phase was 7 ml/min. […] The samples of atorvastatin calcium were dissolved in the solvent 200 mM Tris p H 7, 40% (v/v) acetonitrile of the concentration 0.5 mg/ml.

[1] = oxygen content in atmosphere 0.6 %
[2] = oxygen content in atmosphere 2.8 %, hemi calcium salt
[3] = oxygen content in atmosphere 12.2 %, hemi calcium salt
[4] = oxygen content in atmosphere 21.3 %, hemi calcium salt

Compound | Increase in the assay of degradation products in % in reference to starting active substance [1] | Increase in the assay of degradation products in % in reference to starting active substance [2] | Increase in the assay of degradation products in % in reference to starting active substance [3] | Increase in the assay of degradation products in % in reference to starting active substance [4]
CC(C)c1c(C(=O)Nc2ccccc2)c(-c2ccccc2)c(-c2ccc(F)cc2)n1CC[C@@H](O)C[C@@H](O)CC(=O)O.CC(C)c1c(C(=O)Nc2ccccc2)c(-c2ccccc2)c(-c2ccc(F)cc2)n1CC[C@@H](O)C[C@@H](O)CC(=O)O.CC(C)c1c(C(=O)Nc2ccccc2)c(-c2ccccc2)c(-c2ccc(F)cc2)n1CC[C@@H](O)C[C@@H](O)CC(=O)[O-].CC(C)c1c(C(=O)Nc2ccccc2)c(-c2ccccc2)c(-c2ccc(F)cc2)n1CC[C@@H](O)C[C@@H](O)CC(=O)[O-].[Ca+2] (relative stereo) [Amorphous atorvastatin calcium, (R—(R*, R*))-2-(4-fluorophenyl)-β,δ-dihydroxy-5-(1-methylethyl)-3-phenyl-4((phenylamino)carbonyl)-1H-pyrrole-1-heptanoic acid hemi calcium salt] | 0% | 0.13% | 0.49% | 0.89%
CC(C)c1c(C(=O)Nc2ccccc2)c(-c2ccccc2)c(-c2ccc(F)cc2)n1CC[C@@H](O)C[C@@H](O)CC(=O)O.CC(C)c1c(C(=O)Nc2ccccc2)c(-c2ccccc2)c(-c2ccc(F)cc2)n1CC[C@@H](O)C[C@@H](O)CC(=O)O.CC(C)c1c(C(=O)Nc2ccccc2)c(-c2ccccc2)c(-c2ccc(F)cc2)n1CC[C@@H](O)C[C@@H](O)CC(=O)[O-].CC(C)c1c(C(=O)Nc2ccccc2)c(-c2ccccc2)c(-c2ccc(F)cc2)n1CC[C@@H](O)C[C@@H](O)CC(=O)[O-].[Ca+2] (relative stereo) [Crystalline atorvastatin calcium, (R—(R*, R*))-2-(4-fluorophenyl)-β,δ-dihydroxy-5-(1-methylethyl)-3-phenyl-4((phenylamino)carbonyl)-1H-pyrrole-1-heptanoic acid hemi calcium salt] | 0% | 0% | 0.02% | 0.05%

From patent US20090012150A1, “Stablized Pharmaceutical Composition Comprising an Amorphous Active Substance” (priority 2002, published 2009)
